Experimental data as given in PubChem BioAssay (NCI).
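Interpolation was linear, between the two tested concentrations surrounding the appropriate level; five concentrations were tested over 48 hours in 96-well plates. GI50 = concentration required for 50% inhibition of growth. At the TGI there is no net growth.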

Legend:
Experiment in all cases: NCI anticancer screen, dose series, 48 h
SK-MEL-2 melanoma = tested on: SK-MEL-2 melanoma
U251 CNS = tested on: U251 CNS
786-0 renal = tested on: 786-0 renal
CCRF-CEM leukemia = tested on: CCRF-CEM leukemia
PC-3 prostate = tested on: PC-3 prostate
NCI-H23 lung = tested on: NCI-H23 lung
SK-MEL-5 melanoma = tested on: SK-MEL-5 melanoma
HCT-15 colon = tested on: HCT-15 colon
ACHN renal = tested on: ACHN renal
T-47D breast = tested on: T-47D breast
SR leukemia = tested on: SR leukemia
SF-268 CNS = tested on: SF-268 CNS
MOLT-4 leukemia = tested on: MOLT-4 leukemia
SK-MEL-28 melanoma = tested on: SK-MEL-28 melanoma
DU-145 prostate = tested on: DU-145 prostate
A498 renal = tested on: A498 renal
UACC-62 melanoma = tested on: UACC-62 melanoma
MCF7 breast = tested on: MCF7 breast
SNB-19 CNS = tested on: SNB-19 CNS
HOP-92 NSCLC = tested on: HOP-92 NSCLC
UO-31 renal = tested on: UO-31 renal
OVCAR-4 ovarian = tested on: OVCAR-4 ovarian
CAKI-1 renal = tested on: CAKI-1 renal
HOP-62 NSCLC = tested on: HOP-62 NSCLC
COLO 205 colon = tested on: COLO 205 colon
K-562 leukemia = tested on: K-562 leukemia
M14 melanoma = tested on: M14 melanoma
OVCAR-5 ovarian = tested on: OVCAR-5 ovarian
NCI-H522 lung = tested on: NCI-H522 lung
IGROV1 ovarian = tested on: IGROV1 ovarian
SF-295 CNS = tested on: SF-295 CNS
HS 578T breast = tested on: HS 578T breast
OVCAR-8 ovarian = tested on: OVCAR-8 ovarian
OVCAR-3 ovarian = tested on: OVCAR-3 ovarian
NCI/ADR-RES ovarian = tested on: NCI/ADR-RES ovarian
NCI-H226 lung = tested on: NCI-H226 lung
HCT-116 colon = tested on: HCT-116 colon
SN12C renal = tested on: SN12C renal
HCC-2998 colon = tested on: HCC-2998 colon
A549 NSCLC = tested on: A549 NSCLC
TK-10 renal = tested on: TK-10 renal
SK-OV-3 ovarian = tested on: SK-OV-3 ovarian
LOX IMVI melanoma = tested on: LOX IMVI melanoma
RPMI-8226 leukemia = tested on: RPMI-8226 leukemia
RXF 393 renal = tested on: RXF 393 renal
NCI-H460 lung = tested on: NCI-H460 lung
KM12 colon = tested on: KM12 colon
MDA-MB-435 = tested on: MDA-MB-435
SW-620 colon = tested on: SW-620 colon
HT29 colon = tested on: HT29 colon
HL-60(TB) leukemia = tested on: HL-60(TB) leukemia
UACC-257 melanoma = tested on: UACC-257 melanoma
MALME-3M melanoma = tested on: MALME-3M melanoma
EKVX NSCLC = tested on: EKVX NSCLC
MDA-MB-231 breast = tested on: MDA-MB-231 breast

CC(C)(C)C(=O)OCCNc1nc(-c2ccccc2)nc2ccccc12 was tested, and the GI50 (SK-MEL-2 melanoma) was 31.1 µM, the TGI (SK-MEL-2 melanoma) was > 100 µM and the GI50 (U251 CNS) was 11.5 µM. It also gave a TGI (U251 CNS) of 23.6 µM, a GI50 (786-0 renal) of 3.4 µM and a TGI (786-0 renal) of 19 µM. For the same molecule, the GI50 (CCRF-CEM leukemia) was 12.7 µM, the TGI (CCRF-CEM leukemia) was 35 µM and the GI50 (PC-3 prostate) was 15.6 µM. For the same molecule, the TGI (PC-3 prostate) was 32.6 µM, the GI50 (NCI-H23 lung) was 12.1 µM and the TGI (NCI-H23 lung) was 24.5 µM. For the same molecule, the GI50 (SK-MEL-5 melanoma) was 15.5 µM, the TGI (SK-MEL-5 melanoma) was 28.8 µM and the GI50 (HCT-15 colon) was 12.3 µM. For the same molecule, the TGI (HCT-15 colon) was 24.8 µM, the GI50 (ACHN renal) was 13.6 µM and the TGI (ACHN renal) was 26.5 µM. For the same molecule, the GI50 (T-47D breast) was 22.5 µM, the TGI (T-47D breast) was 93.3 µM and the GI50 (SR leukemia) was 5.44 µM. The TGI (SR leukemia) was 61.5 µM, the GI50 (SF-268 CNS) was 16.8 µM and the TGI (SF-268 CNS) was 35.7 µM. The GI50 (MOLT-4 leukemia) was 2.1 µM, the TGI (MOLT-4 leukemia) was 19 µM and the GI50 (SK-MEL-28 melanoma) was 18.3 µM. It also gave a TGI (SK-MEL-28 melanoma) of 40.1 µM, a GI50 (DU-145 prostate) of 13.3 µM and a TGI (DU-145 prostate) of 26.1 µM. It also gave a GI50 (A498 renal) of 15.1 µM, a TGI (A498 renal) of 29 µM and a GI50 (UACC-62 melanoma) of 14.5 µM. It also gave a TGI (UACC-62 melanoma) of 27.5 µM, a GI50 (MCF7 breast) of 17.3 µM and a TGI (MCF7 breast) of 43.2 µM. The GI50 (SNB-19 CNS) was 17.3 µM, the TGI (SNB-19 CNS) was 34.9 µM and the GI50 (HOP-92 NSCLC) was 12.6 µM. For the same molecule, the TGI (HOP-92 NSCLC) was 29 µM, the GI50 (UO-31 renal) was 13.2 µM and the TGI (UO-31 renal) was 36.1 µM. For the same molecule, the GI50 (OVCAR-4 ovarian) was 23.3 µM, the TGI (OVCAR-4 ovarian) was 73.1 µM and the GI50 (CAKI-1 renal) was 11.6 µM. It also gave a TGI (CAKI-1 renal) of 23.8 µM, a GI50 (HOP-62 NSCLC) of 13 µM and a TGI (HOP-62 NSCLC) of 25.6 µM. It also gave a GI50 (COLO 205 colon) of 16.2 µM, a TGI (COLO 205 colon) of 37.9 µM and a GI50 (K-562 leukemia) of 2.11 µM. For the same molecule, the TGI (K-562 leukemia) was 10.9 µM, the GI50 (M14 melanoma) was 7.57 µM and the TGI (M14 melanoma) was 20.5 µM. It also gave a GI50 (OVCAR-5 ovarian) of 14.6 µM, a TGI (OVCAR-5 ovarian) of 27.8 µM and a GI50 (NCI-H522 lung) of 27.5 µM. For the same molecule, the TGI (NCI-H522 lung) was > 100 µM, the GI50 (IGROV1 ovarian) was 29.5 µM and the TGI (IGROV1 ovarian) was > 100 µM. It also gave a GI50 (SF-295 CNS) of 10.7 µM, a TGI (SF-295 CNS) of 22.5 µM and a GI50 (HS 578T breast) of 11.5 µM. For the same molecule, the TGI (HS 578T breast) was 25.6 µM, the GI50 (OVCAR-8 ovarian) was 13.5 µM and the TGI (OVCAR-8 ovarian) was 42.8 µM. For the same molecule, the GI50 (OVCAR-3 ovarian) was 3.68 µM, the TGI (OVCAR-3 ovarian) was 19.3 µM and the GI50 (NCI/ADR-RES ovarian) was 16.6 µM. The TGI (NCI/ADR-RES ovarian) was 51.6 µM, the GI50 (NCI-H226 lung) was 20.2 µM and the TGI (NCI-H226 lung) was 67.1 µM. For the same molecule, the GI50 (HCT-116 colon) was 11.5 µM, the TGI (HCT-116 colon) was 23.7 µM and the GI50 (SN12C renal) was 15.1 µM. For the same molecule, the TGI (SN12C renal) was 28.4 µM, the GI50 (HCC-2998 colon) was 16.4 µM and the TGI (HCC-2998 colon) was 29.9 µM. It also gave a GI50 (A549 NSCLC) of 16.8 µM, a TGI (A549 NSCLC) of 39.5 µM and a GI50 (TK-10 renal) of 11 µM. It also gave a TGI (TK-10 renal) of 23 µM, a GI50 (SK-OV-3 ovarian) of 17.7 µM and a TGI (SK-OV-3 ovarian) of 38.9 µM. For the same molecule, the GI50 (LOX IMVI melanoma) was 10.3 µM, the TGI (LOX IMVI melanoma) was 22 µM and the GI50 (RPMI-8226 leukemia) was 3.7 µM. The TGI (RPMI-8226 leukemia) was 25.7 µM, the GI50 (RXF 393 renal) was 15.4 µM and the TGI (RXF 393 renal) was 32 µM. The GI50 (NCI-H460 lung) was 16.6 µM, the TGI (NCI-H460 lung) was 34.7 µM and the GI50 (KM12 colon) was 3.94 µM. For the same molecule, the TGI (KM12 colon) was 17.4 µM, the GI50 (MDA-MB-435) was 15.7 µM and the TGI (MDA-MB-435) was 29.1 µM.

In the case of O=C1CSC2=NC3=C(CSC/C3=C\c3ccc(Cl)cc3)C(c3ccc(Cl)cc3)N12 (centres undefined), the TGI (SK-MEL-2 melanoma) is reported as 52.3 µM, the TGI (CCRF-CEM leukemia) is reported as > 100 µM and the TGI (PC-3 prostate) is reported as > 100 µM. For the same molecule, the TGI (SW-620 colon) was 62.3 µM, the TGI (NCI-H23 lung) was > 100 µM and the TGI (SK-MEL-5 melanoma) was 29.3 µM. The TGI (HCT-15 colon) was 80.2 µM, the TGI (ACHN renal) was > 100 µM and the TGI (T-47D breast) was > 100 µM. For the same molecule, the TGI (SR leukemia) was 56.3 µM, the TGI (SF-268 CNS) was > 100 µM and the TGI (MOLT-4 leukemia) was 43.4 µM. The TGI (HT29 colon) was > 100 µM, the TGI (HL-60(TB) leukemia) was > 100 µM and the TGI (SK-MEL-28 melanoma) was 81.9 µM. The TGI (UACC-257 melanoma) was 85.9 µM, the TGI (MALME-3M melanoma) was > 100 µM and the TGI (DU-145 prostate) was > 100 µM. For the same molecule, the TGI (EKVX NSCLC) was > 100 µM, the TGI (UACC-62 melanoma) was > 100 µM and the TGI (MCF7 breast) was 87.2 µM. For the same molecule, the TGI (SNB-19 CNS) was > 100 µM, the TGI (HOP-92 NSCLC) was 39.9 µM and the TGI (UO-31 renal) was 29.3 µM. For the same molecule, the TGI (OVCAR-4 ovarian) was 67.1 µM, the TGI (CAKI-1 renal) was > 100 µM and the TGI (COLO 205 colon) was > 100 µM. For the same molecule, the TGI (K-562 leukemia) was > 100 µM, the TGI (MDA-MB-231 breast) was > 100 µM and the TGI (M14 melanoma) was > 100 µM. For the same molecule, the TGI (OVCAR-5 ovarian) was > 100 µM, the TGI (NCI-H522 lung) was 36.3 µM and the TGI (IGROV1 ovarian) was > 100 µM. The TGI (SF-295 CNS) was 47.6 µM, the TGI (OVCAR-8 ovarian) was 43.3 µM and the TGI (OVCAR-3 ovarian) was 67 µM. For the same molecule, the TGI (NCI/ADR-RES ovarian) was > 100 µM, the TGI (HCT-116 colon) was 29 µM and the TGI (SN12C renal) was 39.2 µM. The TGI (HCC-2998 colon) was 89.2 µM, the TGI (A549 NSCLC) was > 100 µM and the TGI (TK-10 renal) was > 100 µM. The TGI (SK-OV-3 ovarian) was > 100 µM, the TGI (LOX IMVI melanoma) was 28.7 µM and the TGI (RPMI-8226 leukemia) was > 100 µM. The TGI (NCI-H460 lung) was > 100 µM, the TGI (KM12 colon) was 79.1 µM and the TGI (MDA-MB-435) was 66 µM.
